Experiments:
recombinant CYP-21 = target: T1, recombinant CYP-21 (Homo sapiens, UniProt P08686); experiment: Cyp21 assay: AD293 cells over-expressing recombinant CYP-21, 11-deoxycortisol formation from 17α-OH Progesterone by LC/MS; assay type: cell-based
T1 construct: expressed in transfected cells; host or cells: AD293
T1 sequence (P08686 1-495): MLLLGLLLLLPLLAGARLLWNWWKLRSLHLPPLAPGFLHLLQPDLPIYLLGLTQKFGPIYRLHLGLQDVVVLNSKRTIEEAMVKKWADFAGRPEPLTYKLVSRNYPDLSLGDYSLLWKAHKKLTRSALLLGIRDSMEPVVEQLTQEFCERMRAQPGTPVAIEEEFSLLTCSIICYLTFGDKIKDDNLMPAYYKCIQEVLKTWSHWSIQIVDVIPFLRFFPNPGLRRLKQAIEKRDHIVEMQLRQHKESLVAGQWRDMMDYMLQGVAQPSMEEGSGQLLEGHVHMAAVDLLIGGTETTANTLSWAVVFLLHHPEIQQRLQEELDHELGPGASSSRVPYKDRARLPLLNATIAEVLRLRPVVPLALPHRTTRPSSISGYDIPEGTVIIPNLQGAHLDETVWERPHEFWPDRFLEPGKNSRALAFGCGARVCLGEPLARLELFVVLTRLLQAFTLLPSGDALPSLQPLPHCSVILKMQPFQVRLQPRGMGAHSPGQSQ
Description: Cyp21 assay protocol: AD293 cells that stably over-express recombinant CYP-21 were seeded in 96 well plates coated with poly D-lysine (10,000 cell per well) and incubated at 37° C. for 24 hours in Dulbecco's Modified Eagle Medium (DMEM) with Fetal Bovine Serum (FBS) that is stripped of hormones by charcoal treatment. The media is then removed, the cells are washed once with Phosphate buffer saline solution, and 50 μL Dulbecco's Modified Eagle Medium (DMEM) with Fetal Bovine Serum (FBS) that is stripped of hormones by charcoal treatment is added. Compounds of the disclosure are then added to the wells in eight concentration spanning 10 μM to 4.5 nM, and the plates are incubated for an additional 60 minutes at 37° C. 17α-OH Progesterone is then added (1.0 μM) and the plates are incubated for an additional 45 minutes at 37° C. After incubation, 50 uL of the supernatant (medium) is transferred into a fresh plate and 150 uL of an acetonitrile solution containing 200 ng/ml of Telmisartan is added. The sample is mixed and then placed in a centrifuge at 2000 rpm for 5 minutes. 100 uL of the supernatant is transferred into a fresh 96 well deep well plate, 100 uL of 1:1 methanol:water was added, the solution was mixed and then analyzed by LC/MS for the presence of 11-deoxycortisol using an Agilent 1200 RRLC/ABSCIEX API4000 LC-MS or Shimadzu Prominance/ABSCIEX API4000 LC-MS to determine IC5os of the compounds of the disclosure.

Cyp19 = target: T2, Cyp19 (Homo sapiens, UniProt P11511); experiment: Cyp19 off-target counter screen; assay type: biochemical; details: off-target enzyme
T2 sequence (P11511 1-503): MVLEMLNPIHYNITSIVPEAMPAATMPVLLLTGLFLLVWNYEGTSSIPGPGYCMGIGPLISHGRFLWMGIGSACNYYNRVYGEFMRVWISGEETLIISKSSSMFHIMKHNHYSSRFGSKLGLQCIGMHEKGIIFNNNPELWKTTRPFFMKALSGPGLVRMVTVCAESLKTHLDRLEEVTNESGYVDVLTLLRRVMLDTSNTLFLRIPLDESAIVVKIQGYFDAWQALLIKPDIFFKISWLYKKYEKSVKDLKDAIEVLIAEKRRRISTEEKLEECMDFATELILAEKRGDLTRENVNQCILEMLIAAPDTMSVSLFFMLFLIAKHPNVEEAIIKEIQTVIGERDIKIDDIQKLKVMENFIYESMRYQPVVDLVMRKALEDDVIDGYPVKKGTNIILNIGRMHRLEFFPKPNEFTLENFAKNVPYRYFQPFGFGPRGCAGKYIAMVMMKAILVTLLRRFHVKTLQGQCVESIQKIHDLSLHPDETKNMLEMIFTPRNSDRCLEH

Cyp3A4 = Cyp3A4 (Homo sapiens, UniProt P08684); experiment: Cyp3A4 off-target counter screen; assay type: in vitro ADME; details: off-target enzyme
[1] = tested on: Bile Acid (Cyp7A surrogate); experiment: Bile acid secretion / synthesis inhibition (Cyp7A surrogate); assay type: cell-based
recombinant CYP-11 = target: T3, recombinant CYP-11 (Homo sapiens, UniProt P15538); experiment: Cyp11 assay: AD293 cells over-expressing recombinant CYP-11, cortisol formation from 11-deoxycortisol by LC/MS; assay type: cell-based
T3 construct: expressed in transfected cells; host or cells: AD293
T3 sequence (P15538 25-503): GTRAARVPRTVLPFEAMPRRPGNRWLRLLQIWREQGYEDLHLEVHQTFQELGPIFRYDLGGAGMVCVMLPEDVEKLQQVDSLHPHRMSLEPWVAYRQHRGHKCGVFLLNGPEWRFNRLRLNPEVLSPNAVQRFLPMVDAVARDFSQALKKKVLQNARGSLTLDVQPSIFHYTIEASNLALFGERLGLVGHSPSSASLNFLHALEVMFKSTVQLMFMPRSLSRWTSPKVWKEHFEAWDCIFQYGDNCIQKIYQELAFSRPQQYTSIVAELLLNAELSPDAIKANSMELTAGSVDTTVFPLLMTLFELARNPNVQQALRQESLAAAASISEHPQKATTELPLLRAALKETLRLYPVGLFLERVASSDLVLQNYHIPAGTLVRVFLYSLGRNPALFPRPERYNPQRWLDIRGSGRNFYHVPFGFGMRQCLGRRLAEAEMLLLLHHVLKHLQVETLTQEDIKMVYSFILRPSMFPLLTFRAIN
Description: Cyp11 assay protocol: AD293 cells that stably over-express recombinant CYP-11 were seeded in 96 well plates coated with poly D-lysine (15,000 cell per well) and incubated at 37° C. for 24 hours in Dulbecco's Modified Eagle Medium (DMEM) with Fetal Bovine Serum (FBS) that is stripped of hormones by charcoal treatment. The media is then removed, the cells are washed once with Phosphate buffer saline solution, and 50 μL Dulbecco's Modified Eagle Medium (DMEM) with Fetal Bovine Serum (FBS) that is stripped of hormones by charcoal treatment is added. Compounds of the disclosure are then added to the wells in eight concentration spanning 10 μM to 4.5 nM, and the plates are incubated for an additional 60 minutes at 37° C. 11-deoxycortisol is then added (2.0 μM) and the plates are incubated for an additional 12 hours at 37° C. After incubation, 50 uL of the supernatant (medium) is transferred into a fresh plate and 150 uL of an acetonitrile solution containing 200 ng/ml of Telmisartan is added. The sample is mixed and then placed in a centrifuge at 2000 rpm for 5 minutes. 100 uL of the supernatant is transferred into a fresh 96 well deep well plate, 100 uL of 1:1 methanol:water was added, the solution was mixed and then analyzed by LC/MS for the presence of cortisol using an Agilent 1200 RRLC/ABSCIEX API4000 LC-MS or Shimadzu Prominance/ABSCIEX API4000 LC-MS to determine IC5os of the compounds of the disclosure.

Chain of Cyp3A4 (P08684 whole entry): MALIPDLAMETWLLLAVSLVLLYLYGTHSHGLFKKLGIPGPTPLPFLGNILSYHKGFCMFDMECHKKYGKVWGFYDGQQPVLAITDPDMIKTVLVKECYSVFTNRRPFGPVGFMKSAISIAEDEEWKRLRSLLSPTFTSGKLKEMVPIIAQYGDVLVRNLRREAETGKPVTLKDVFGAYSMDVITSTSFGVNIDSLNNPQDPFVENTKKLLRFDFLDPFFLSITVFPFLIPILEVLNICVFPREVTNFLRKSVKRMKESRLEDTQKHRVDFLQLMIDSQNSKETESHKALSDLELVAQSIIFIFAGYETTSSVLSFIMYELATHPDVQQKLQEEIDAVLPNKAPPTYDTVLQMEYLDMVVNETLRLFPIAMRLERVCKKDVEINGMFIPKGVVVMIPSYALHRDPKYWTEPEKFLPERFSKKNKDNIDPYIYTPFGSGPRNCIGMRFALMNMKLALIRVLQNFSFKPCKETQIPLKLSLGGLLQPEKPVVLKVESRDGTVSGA

Work on `CC(=O)N1CCN(c2ccc(CO[C@H]3CO[C@](Cn4ccnc4)(c4ccc(Cl)cc4Cl)OC3)cc2)CC1` [drawing 112] yielded an IC50 (recombinant CYP-21) of 208 nM, an IC50 (Cyp19) of 350 nM and an IC50 (Cyp3A4) of 109 nM. The IC50 [1] was 880 nM and the IC50 (recombinant CYP-11) was 12 nM.
